According to patent US20230331720A1, “MEDIUM- OR MACRO-CYCLIC BENZYL-SUBSTITUTED HETEROCYCLE DERIVATIVES AND THEIR USES AS OREXIN-2 RECEPTOR AGONISTS” (Orexia Therapeutics Limited, priority 2020, published 2023):

Target: T1, human orexin type 2 receptor (hOX2R) (Homo sapiens, UniProt O43614)
T1 construct: expressed in transfected cells
T1 sequence (O43614 1-444): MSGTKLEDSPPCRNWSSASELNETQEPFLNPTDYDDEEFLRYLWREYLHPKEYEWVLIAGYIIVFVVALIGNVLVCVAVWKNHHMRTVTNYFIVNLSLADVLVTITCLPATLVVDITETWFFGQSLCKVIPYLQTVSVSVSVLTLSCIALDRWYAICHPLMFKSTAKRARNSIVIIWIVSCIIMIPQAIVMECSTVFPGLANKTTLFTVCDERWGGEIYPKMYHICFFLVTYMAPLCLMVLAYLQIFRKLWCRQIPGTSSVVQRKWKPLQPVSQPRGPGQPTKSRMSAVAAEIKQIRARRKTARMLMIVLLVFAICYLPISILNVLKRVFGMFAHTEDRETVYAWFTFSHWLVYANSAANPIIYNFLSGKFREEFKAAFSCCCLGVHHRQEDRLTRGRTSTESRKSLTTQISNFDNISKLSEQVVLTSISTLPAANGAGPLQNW
Assay: Orexin type 2 receptor agonist activity, intracellular Ca2+ (FLIPR TETRA)
Format: cell-based
Details: CHO cells expressing hOX2R; Ca2+ fluorescence area
Procedure: Stable cell line generation. Obtainment of cells stably expressing either human orexin type 2 or human orexin type 1 receptor; to obtain a stable cell line the Orexin receptor cDNA was inserted into pcDNA3.1(+) plasmid vector and clones identified by G418 drug resistance selection. […] A single clone for OX2R-CHO and OX1R-CHO were grown in bulk and frozen to generate a cell bank for routine screening.
Measurement of orexin type 2 receptor agonist activity. Chinese hamster ovary (CHO) cells expressing human orexin type 2 receptor (hOX2R) or human orexin type 1 receptor (hOX1R) were seeded in each well of 384 well black clear bottom plates (BD Flacon) at 10,000 cells per well and cultured for 24 hr in an Ham's F12 (Gibco) medium containing 10% fetal calf serum (Sigma Aldrich) under the conditions of 37° C., 5% CO2. After removal of the medium, 50 μl of assay buffer 1 (0.1% bovine serum albumin (Sigma Aldrich), 20 mM HEPES (Molecular Dimensions), […] probenecid (Sigma Aldrich), 1× Calcium 5 dye (Molecular Devices) in Hank's balanced salt solution (Invitrogen)) was added, and the cells were incubated for 60 min under the conditions of 37° C., 5% CO2. A test compound was dissolved in dimethyl sulfoxide (Sigma Aldrich) to 10 mM, and then diluted with assay buffer 2 (20 mM HEPES, Hank's balanced salt solution, 0.1% bovine serum albumin). For the reaction, a test compound solution (10 μl) was added using Fluorescent Imaging Plate Reader TETRA (FLIPR TETRA: manufactured by Molecular Devices), a fluorescence value (excitation wavelength 488 nm, measurement wavelength 570 nm) of each well was measured every one second for 2 min, and the agonist activity was determined using the area of the fluorescence value as an indicator of intracellular Ca^2+ concentration. The agonist activity of the test compound was calculated assuming that the fluorescence value of the well added with only the dilution buffer was 0% and the fluorescence value of the well added with 10 nM human orexin A (Tocris) buffer was 100%. As used herein, Emax indicates the value at 10 μM concentration when orexin A is converted to a full agonist (maximum value of agonist activity: 100%).

| SMILES | hOx2 pEC50 |
| --- | --- |
| CCS(=O)(=O)NC1CCN2C(=O)OCCOc3ccccc3-c3cccc(c3)CC12 (stereo not shown) [Compound A1-22, N-(5-oxo-6,9-dioxa-4(2,1)-pyrrolidina-1(1,2),2(1.3)-dibenzenacyclo-nonaphane-4^3-yl)ethanesulfonamide] | ++ (7.0≤“++”<8.0) |
| CCS(=O)(=O)NC1CCN2C(=O)NCCCCCOc3ccccc3-c3cccc(c3)CC12 (stereo not shown) [Compound A1-23, N-(5-oxo-12-oxa-6-aza-4(2,1)-pyrrolidina-1(1,2),2(1,3)-dibenzenacyclo-dodecaphane-43-yl)ethanesulfonamide] | + (6.0≤“+”<7.0) |

Same assay, conditions: CHO cells expressing hOX2R; Ca2+ fluorescence area; read-out: hOx2 pEC50 (converted)

| SMILES | EC50 [nM] |
| --- | --- |
| CCS(=O)(=O)N[C@H]1CCN2C(=O)NCCCCCc3ccccc3-c3cccc(c3)C[C@@H]12 (single isomer, unassigned) [Compound A1-42, N-((4^2S,4^3S)-5-oxo-6-aza-4(2,1)-pyrrolidina-1(1,2),2(1,3)-dibenzenacycloundecaphane-4^3-yl)ethanesulfonamide] | 0.1 to 1 |
| CCS(=O)(=O)N[C@@H]1CCN2C(=O)NCCCCCc3ccccc3-c3cccc(c3)C[C@H]12 (single isomer, unassigned) [Compound A1-43, N-((4^2R,4^3R)-5-oxo-6-aza-4(2,1)-pyrrolidina-1(1,2),2(1,3)-dibenzenacycloundecaphane-4^3-yl)ethanesulfonamide] | 100 to 1000 |
| CS(=O)(=O)N[C@@H]1CCCN2C(=O)NCCOc3ccccc3-c3cccc(c3)C[C@H]12 [Compound A1-3, N-((4^2R,4^3R)-5-oxo-9-oxa-6-aza-4(2,1)-piperidina-1(1,2),2(1,3)-dibenzenacyclo-nonaphane-4^3-yl)methanesulfonamide] | 1 to 10 |
| CS(=O)(=O)N[C@H]1CCCN2C(=O)NCCOc3ccccc3-c3cccc(c3)C[C@@H]12 [Compound A1-4, N-((4^2S,4^3S)-5-oxo-9-oxa-6-aza-4(2,1)-piperidina-1(1,2),2(1,3)-dibenzenacyclo-nonaphane-4^3-yl)methanesulfonamide] | 100 to 1000 |
| CCS(=O)(=O)N[C@H]1CCN2C(=O)NCCOc3ccccc3-c3cccc(c3)C[C@@H]12 [Compound A1-7, N-((4^2S,4^3S)-5-oxo-9-oxa-6-aza-4(2,1)-pyrrolidina-1-(1,2),2-(1,3)-dibenzenacyclo-nonaphane-4′-yl)ethanesulfonamide] | 10 to 100 |
| CCS(=O)(=O)N[C@H]1CCN2C(=O)N(C)CCCCCc3ccccc3-c3cccc(c3)C[C@@H]12 [Compound A1-10, N-((4^2S,4^3S)-6-methyl-5-oxo-6-aza-4(2,1)-pyrrolidina-1(1,2),2(1,3)-dibenzena-cycloundecaphane-4^3-yl)ethanesulfonamide] | 0.1 to 1 |
| CS(=O)(=O)NC1CCCN2C(=O)CCCc3ccccc3-c3cccc(c3)CC12 (stereo not shown) [Compound A1-59] | 10 to 100 |
| CS(=O)(=O)N[C@H]1CCCN2C(=O)OCCOc3ccccc3-c3cccc(c3)C[C@@H]12 [Compound A1-60] | 10 to 100 |
| CN1CCOc2ccccc2-c2cccc(c2)C[C@H]2[C@@H](NS(C)(=O)=O)CCN2C1=O [Compound A1-61] | 10 to 100 |
| CS(=O)(=O)NC1CCCN2C(=O)OCCOc3ccccc3-c3cccc(c3)CC12 (stereo not shown) [Compound A1-63] | 10 to 100 |
| CS(=O)(=O)N[C@H]1CCCN2C(=O)CCCOc3ccccc3-c3cccc(c3)C[C@@H]12 [Compound A1-64] | 10 to 100 |
| CCS(=O)(=O)NC1CCN2C(=O)N3CC[C@H]3COc3ccccc3-c3cccc(c3)CC12 (stereo partly shown) [Compound A1-65] | 10 to 100 |
| CS(=O)(=O)N[C@H]1CCN2C(=O)C(F)(F)CCCCCc3ccccc3-c3cccc(c3)C[C@@H]12 [Compound A1-66] | 10 to 100 |
| CS(=O)(=O)N[C@H]1CCCN2C(=O)CCCc3ccccc3-c3cccc(c3)C[C@@H]12 [Compound A1-67] | 10 to 100 |
| CS(=O)(=O)N[C@H]1CCCN2C(=O)CCOc3ccccc3-c3cccc(c3)C[C@@H]12 [Compound A1-68] | 10 to 100 |
| CCS(=O)(=O)N[C@H]1CCN2C(=O)N(C)CCOc3ccccc3-c3cccc(c3)C[C@@H]12 [Compound A1-71] | 10 to 100 |
| CCS(=O)(=O)N[C@H]1CCCN2C(=O)CCOc3ccccc3-c3cccc(c3)C[C@@H]12 [Compound A1-72] | 1 to 10 |
| CS(=O)(=O)N[C@H]1CCCN2C(=O)NCCOc3ccccc3-c3cccc(c3F)C[C@@H]12 [Compound A1-73] | 1 to 10 |
| CCS(=O)(=O)N[C@H]1CCCN2C(=O)CCOc3ccccc3-c3cccc(c3)C[C@@H]12 [Compound A1-74, N-((4^2,4^3S)-5-oxo-8-oxa-4(2,1)-piperidina-1(1,2),2(1.3)-dibenzenacyclo-octaphane-4^3-yl)ethanesulfonamide] | 10 to 100 |

Other lines, results leading:

| EC50 [nM] | SMILES |
| --- | --- |
| 10 to 100 | CN(C)S(=O)(=O)N[C@@H]1CCCN2C(=O)CCOc3ccccc3-c3cccc(c3)C[C@H]12 [Compound A1-75] |
| 1 to 10 | CN(C)S(=O)(=O)N[C@H]1CCCN2C(=O)CCOc3ccccc3-c3cccc(c3)C[C@@H]12 [Compound A1-76, N-((4^2S,4^3S)-5-oxo-8-oxa-4(2,1)-piperidina-1(1,2),2(1,3)-dibenzenacyclooctaphane-4^3-yl)-N,N-dimethylsulfuric diamide] |
| 10 to 100 | CN(C)S(=O)(=O)N[C@H]1CCCN2C(=O)OCCOc3ccccc3-c3cccc(c3)C[C@@H]12 [Compound A1-77] |
| 1 to 10 | CS(=O)(=O)N[C@H]1CCCN2C(=O)CCOc3ccccc3-c3cccc(c3)C[C@@H]12 [Compound A1-78, N-((4^2S,4^3S)-5-oxo-8-oxa-4(2,1)-piperidina-1(1,2),2(1,3)-dibenzenacyclo-octaphane-4^3-yl)methanesulfonamide] |
| 1 to 10 | CN(C)S(=O)(=O)N[C@H]1CCCN2C(=O)CCCc3ccccc3-c3cccc(c3)C[C@@H]12 [Compound A1-79] |
| 1 to 10 | O=C1CCOc2ccccc2-c2cccc(c2)C[C@H]2[C@@H](NS(=O)(=O)CF)CCCN12 [Compound A1-80] |
| 1 to 10 | CN1CCOc2ccccc2-c2cccc(c2)C[C@H]2[C@@H](NS(=O)(=O)N(C)C)[C@@H](F)CN2C1=O [Compound A1-81] |
| 1 to 10 | CS(=O)(=O)N[C@H]1CCCN2C(=O)CCOc3ccccc3-c3cccc(c3F)C[C@@H]12 [Compound A1-82, N-((4^2S,4^3S)-22-fluoro-5-oxo-8-oxa-4(2.1)-piperidina-1(1,2),2(1.3)-dibenzenacyclooctaphane-4^3-yl)methanesulfonamide] |
| 1 to 10 | COc1c2cccc1-c1ccccc1OCCC(=O)N1CCC[C@H](NS(C)(=O)=O)[C@@H]1C2 [Compound A1-83] |
| 0.1 to 1 | O=C1CCOc2ccccc2-c2cccc(c2)C[C@H]2[C@@H](NS(=O)(=O)C3CC3)CCCN12 [Compound A1-84] |
| 10 to 100 | C[C@H]1COc2ccccc2-c2cccc(c2)C[C@H]2[C@@H](NS(C)(=O)=O)CCCN2C1=O [Compound A1-85] |
| 1 to 10 | COc1c2cccc1-c1ccccc1OCCN(C)C(=O)N1C[C@H](F)[C@H](NS(=O)(=O)CF)[C@@H]1C2 [Compound A1-86] |
| 1 to 10 | O=C1CCOc2ccccc2-c2cc(ccc2F)C[C@H]2[C@@H](NS(=O)(=O)CF)CCCN12 [Compound A1-87, 1-fluoro-N-((4^2S,4^3S)-26-fluoro-5-oxo-8-oxa-4(2,1)-piperidina-1(1,2),2(1,3)-dibenzenacyclooctaphane-4^3-yl)methanesulfonamide] |
| 10 to 100 | COc1c2cccc1-c1ccccc1OCCNC(=O)N1C[C@H](F)[C@H](NS(=O)(=O)CF)[C@@H]1C2 [Compound A1-88] |
| 10 to 100 | O=C1CCOc2cccc(F)c2-c2cccc(c2)C[C@H]2[C@@H](NS(=O)(=O)CF)CCCN12 [Compound A1-89, 1-fluoro-N-((4^2S,4^3S)-16-fluoro-5-oxo-8-oxa-4(2,1)-piperidina-1(1,2),2(1,3)-dibenzenacyclooctaphane-4^3-yl)methanesulfonamide] |
| 0.1 to 1 | O=C1CCOc2c(F)cccc2-c2cccc(c2)C[C@H]2[C@@H](NS(=O)(=O)CF)CCCN12 [Compound A1-90, 1-fluoro-N-((4^2S,4^3S)-13-fluoro-5-oxo-8-oxa-4(2,1)-piperidina-1(1,2),2(1,3)-dibenzenacyclooctaphane-4^3-yl)methanesulfonamide] |
